Among the data in US20240002375A1, “2-(INDAZOL-5-YL)-6-(PIPERIDIN-4-YL)-1,7-NAPHTHYRIDINE DERIVATIVES AND RELATED COMPOUNDS AS MODULATORS FOR SPLICING NUCLEIC ACIDS AND FOR THE TRE” (REMIX THERAPEUTICS INC., priority 2020, published 2024) are IC50 and AC50 values, retold here.

Bounds are passed on as bounds.

Assay type in all cases: cell-based
One test concerns Target C CJ mRNA. Put plainly: Gene panel canonical junction qPCR splicing assay, Target C. The settings on record: Table 4, read-out: Target C IC50 (decrease in CJ mRNA levels). The method in brief:
(§1)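 A673 or K562 cells treated with compound; canonical-junction mRNA measured by RT-qPCR with junction-spanning primer/probe sets, normalized to GAPDH, GUSB or PPIA and DMSO (2^−ΔΔCt). IC50 for CJ decrease from 4-parameter logistic fit of percentage response.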
In general terms: Real-time PCR tracks product formation cycle by cycle.

Another test deals with SMN2 CJ mRNA. Put plainly: Gene panel canonical junction qPCR splicing assay, SMN2. The settings on record: Table 4, read-out: SMN2 IC50 (decrease in CJ mRNA levels). The method in brief: as §1
For another test, the system named is HTT mRNA. Put plainly: Splicing assay (RT-qPCR) of HTT mRNA alternative junction (AJ) and canonical junction (CJ). The settings on record: A673 or K562 cells, 24 hours; for IC50: decrease in CJ mRNA, read-out: HTT CJ IC50; for AC50: increase in AJ mRNA, read-out: HTT AJ AC50. The method in brief: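 HTT splice switching read as formation of an alternative-exon junction (AJ) versus the canonical junction (CJ) by one-step RT-qPCR on cell lysates, with GAPDH/GUSB housekeeping normalisation in K562 and PPIA in A673. Compounds: 11-point 3-fold series up to 10 uM, ≤0.25% DMSO, 24 h at 37 °C.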

For the next test, the system named is HTT CJ mRNA. Put plainly: Gene panel canonical junction qPCR splicing assay, HTT. The settings on record: Table 4, read-out: HTT IC50 (decrease in CJ mRNA levels). The method in brief: as §1

In general, IC50 refers to the point on the concentration scale where inhibition reaches its midpoint. Broadly, the AC50 is the concentration giving half of the maximal activity seen. With `Cc1nc2c(C)c(O)c(-c3ccc4nc(N5CCC(NC6CCC6)C5)ccc4n3)cc2o1` (stereo not shown) [Compound 235, 6-{6-[3-(cyclobutylamino)pyrrolidin-1-yl]-1,5-naphthyridin-2-yl}-2,4-dimethyl-1,3-benzoxazol-5-ol], the IC50 in the test on Target C CJ mRNA, in the test on SMN2 CJ mRNA, in the test with HTT mRNA and in the test with HTT CJ mRNA was under 100 nM each time. Moreover, the AC50 with HTT mRNA is under 100 nM.
On to `Cn1cc2cc(-c3ccc4nc(N5CCC(N)C5)ccc4n3)c(O)c(F)c2n1` (stereo not shown) [Compound 238, 5-[6-(3-aminopyrrolidin-1-yl)-1,5-naphthyridin-2-yl]-7-fluoro-2-methylindazol-6-ol], for which the IC50 with Target C CJ mRNA, with SMN2 CJ mRNA, in the test with HTT mRNA and with HTT CJ mRNA was under 100 nM in each case. In the test with HTT mRNA, the AC50 was under 100 nM.
Regarding `Cn1cc2cc(-c3ccc4cc(C5CCNCC5)ccc4n3)c(O)c(F)c2n1` [Compound 241, 7-fluoro-2-methyl-5-[6-(piperidin-4-yl)quinolin-2-yl]indazol-6-ol], the IC50 in the test on Target C CJ mRNA, in the test with SMN2 CJ mRNA, with HTT mRNA and in the test on HTT CJ mRNA was under 100 nM each time. For the same compound, in the test with HTT mRNA, the AC50 is under 100 nM.
Turning to `Cn1cc2cc(-c3ccc4nc(N5CC[C@@H](N[C@H]6C[C@H](F)C6)C5)ccc4n3)c(O)cc2n1` [Compound 246], the IC50 in the test on Target C CJ mRNA, in the test with SMN2 CJ mRNA, in the test on HTT mRNA and in the test on HTT CJ mRNA was under 100 nM each time. Further, in the test on HTT mRNA, the half-maximal activity concentration (AC50) was under 100 nM.
In the case of `Cn1cc2cc(-c3ccc4nc(N5CC[C@H](N[C@H]6C[C@H](F)C6)C5)ccc4n3)c(O)cc2n1` [Compound 247], the IC50 is 100 to 1000 nM in the test on Target C CJ mRNA, under 100 nM in the test on SMN2 CJ mRNA, under 100 nM in the test on HTT mRNA and under 100 nM in the test on HTT CJ mRNA. The AC50 in the test on HTT mRNA fell in the range of 100 to 1000 nM.
